Active and inactive are the calls of the source. The calls are words filed in the database; no cut-off is given here. Peptide text beside a SMILES is read from it.
What was measured:
[1] = test system: SMMC-7721; assay: Induction of apoptosis in human SMMC7721 cells assessed as chromatin condensation at 0.2 uM after 24 hrs by DAPI staining based laser confocal microscopy; type: functional, cell-based
[2] = test system: SMMC-7721; assay: Induction of apoptosis in human SMMC7721 cells assessed as late apoptotic cells at 0.2 uM after 24 hrs by Annexin V-FITC/propidium iodide staining based flow cytometry (reference value: 0.7%); type: functional
[3] = test system: SMMC-7721; assay: Induction of apoptosis in human SMMC7721 cells assessed as early apoptotic cells at 0.2 uM after 24 hrs by Annexin V-FITC/propidium iodide staining based flow cytometry (reference value: 2%); type: functional
[4] = test system: HepG2; assay: Antiproliferative activity against human HepG2 cells after 24 hrs by MTT assay; type: functional, cell-based; conditions: HepG2, 24 h
[5] = test system: SMMC-7721; assay: Antiproliferative activity against human SMMC7721 cells after 24 hrs by MTT assay; type: functional, cell-based; conditions: SMMC-7721, 24 h
[6] = test system: SMMC-7721; assay: Induction of apoptosis in human SMMC7721 cells assessed as late apoptotic cells at 30 uM after 24 hrs by Annexin V-FITC/propidium iodide staining based flow cytometry (reference value: 0.7%); type: functional
[7] = test system: Mus musculus; assay: Toxicity in Balb/c nude mouse xenografted with human SMMC7721 cells assessed as body weight level at 8 mg/kg, ip for 32 days (reference value: 25.4 +/- 1.8 g); type: organism-based; conditions: in vivo, 768 h
[8] = test system: SMMC-7721; assay: Induction of morphological changes in tumor of human SMMC7721 cells xenografted Balb/c nude mouse induction of nuclei and cytoplasm non-uniform distribution at 40 mg/kg, ip for 32 days by hematoxylin/eosin staining based microscopic analysis; type: functional, organism-based
[9] = test system: SMMC-7721; assay: Induction of apoptosis in human SMMC7721 cells assessed as late apoptotic cells at 10 uM after 24 hrs by Annexin V-FITC/propidium iodide staining based flow cytometry (reference value: 0.7%); type: functional
[10] = test system: SMMC-7721; assay: Induction of morphological changes in tumor of human SMMC7721 cells xenografted Balb/c nude mouse assessed as reduction in number of nuclei at 40 mg/kg, ip for 32 days by hematoxylin/eosin staining based microscopic analysis; type: functional, organism-based
[11] = test system: SMMC-7721; assay: Cell cycle arrest in human SMMC7721 cells assessed as G2/M phase accumulation at 20 uM after 24 hrs by propidium iodide staining based flow cytometry relative to control; type: functional
[12] = test system: SMMC-7721; assay: Cell cycle arrest in human SMMC7721 cells assessed as G2/M phase accumulation at 10 uM after 24 hrs by propidium iodide staining based flow cytometry relative to control; type: functional
[13] = test system: Mus musculus; assay: Toxicity in Balb/c nude mouse xenografted with human SMMC7721 cells assessed as body weight level at 16 mg/kg, ip for 32 days (reference value: 25.4 +/- 1.8 g); type: organism-based; conditions: in vivo, 768 h
[14] = test system: SMMC-7721; assay: In vivo induction of apoptosis in human SMMC7721 cells xenografted in Balb/c nude mouse assessed as activation of caspase-3 dosed intraperitoneally for 32 days by IHC analysis; type: functional, organism-based
[15] = test system: SMMC-7721; assay: Induction of apoptosis in human SMMC7721 cells assessed as increase in cleaved caspase-9 protein expression after 24 hrs by Western blot method; type: functional, cell-based
[16] = test system: SMMC-7721; assay: Cell cycle arrest in human SMMC7721 cells assessed as G2/M phase accumulation at 30 uM after 24 hrs by propidium iodide staining based flow cytometry relative to control; type: functional
[17] = test system: SMMC-7721; assay: Induction of apoptosis in human SMMC7721 cells assessed as early apoptotic cells at 30 uM after 24 hrs by Annexin V-FITC/propidium iodide staining based flow cytometry (reference value: 2%); type: functional
[18] = test system: SMMC-7721; assay: Antitumor activity against human SMMC7721 cells xenografted in Balb/c nude mouse assessed as tumor growth inhibition dosed intraperitoneally for 32 days; type: functional, organism-based
[19] = test system: SMMC-7721; assay: In vivo induction of apoptosis in human SMMC7721 cells xenografted in Balb/c nude mouse at 8 to 40 mg/kg, ip for 32 days by TUNEL assay; type: functional, organism-based
[20] = test system: SMMC-7721; assay: Antitumor activity against human SMMC7721 cells xenografted in Balb/c nude mouse assessed as tumor growth inhibition at 40 mg/kg, ip for 32 days relative to control; type: functional; conditions: SMMC-7721, ip, 768 h, read-out: TGI
[21] = test system: SMMC-7721; assay: Induction of apoptosis in human SMMC7721 cells assessed as increase in cleaved caspase-8 protein expression after 24 hrs by Western blot method; type: functional, cell-based
[22] = test system: SMMC-7721; assay: Induction of apoptosis in human SMMC7721 cells assessed as chromatin condensation at 10 to 30 uM after 24 hrs by DAPI staining based laser confocal microscopy; type: functional, cell-based
[23] = test system: Mus musculus; assay: Toxicity in Balb/c nude mouse xenografted with human SMMC7721 cells assessed as body weight level at 40 mg/kg, ip for 32 days (reference value: 25.4 +/- 1.8 g); type: organism-based; conditions: in vivo, 768 h
[24] = test system: SMMC-7721; assay: Antitumor activity against human SMMC7721 cells xenografted in Balb/c nude mouse assessed as tumor growth inhibition at 8 mg/kg, ip for 32 days relative to control; type: functional; conditions: SMMC-7721, ip, 768 h, read-out: TGI
[25] = test system: SMMC-7721; assay: Induction of apoptosis in human SMMC7721 cells assessed as early apoptotic cells at 10 uM after 24 hrs by Annexin V-FITC/propidium iodide staining based flow cytometry (reference value: 2%); type: functional
[26] = test system: SMMC-7721; assay: Induction of apoptosis in human SMMC7721 cells assessed as increase in cleaved caspase-3 protein expression after 24 hrs by Western blot method; type: functional, cell-based
[27] = test system: SMMC-7721; assay: Antitumor activity against human SMMC7721 cells xenografted in Balb/c nude mouse assessed as tumor growth inhibition at 16 mg/kg, ip for 32 days relative to control; type: functional; conditions: SMMC-7721, ip, 768 h, read-out: TGI
[28] = test system: SMMC-7721; assay: Induction of morphological changes in tumor of human SMMC7721 cells xenografted Balb/c nude mouse assessed as appearance of shrunken nuclei at 40 mg/kg, ip for 32 days by hematoxylin/eosin staining based microscopic analysis; type: functional, organism-based
[29] = test system: SMMC-7721; assay: Induction of apoptosis in human SMMC7721 cells assessed as late apoptotic cells at 20 uM after 24 hrs by Annexin V-FITC/propidium iodide staining based flow cytometry (reference value: 0.7%); type: functional
[30] = test system: SMMC-7721; assay: Induction of apoptosis in human SMMC7721 cells assessed as increase in cleaved PARP protein expression after 24 hrs by Western blot method; type: functional, cell-based
[31] = test system: SMMC-7721; assay: Induction of apoptosis in human SMMC7721 cells assessed as early apoptotic cells at 20 uM after 24 hrs by Annexin V-FITC/propidium iodide staining based flow cytometry (reference value: 2%); type: functional
[32] = test system: SMMC-7721; assay: Cell cycle arrest in human SMMC7721 cells assessed as G2/M phase accumulation at 2.5 uM after 24 hrs by propidium iodide staining based flow cytometry relative to control; type: functional

In the case of `CC(=O)O[C@H]1C(=O)[C@@]2(C)[C@H]([C@H](OC(=O)c3ccccc3)[C@]3(O)C[C@H](OC(=O)[C@H](O)[C@@H](NC(=O)c4ccccc4)c4ccccc4)C(C)=C1C3(C)C)[C@]1(OC(C)=O)CO[C@@H]1C[C@@H]2O` [PACLITAXEL], the Activity [1] is reported as “Active”, the Activity [2] is reported as 3.4% and the Activity [3] is reported as 54.7 - 56.7%.
Molecule `CC[C@H](C)[C@@H]1NC(=O)[C@@H]2CCCN2C(=O)[C@H](CC(C)C)NC(=O)[C@H](C(C)C)NC(=O)[C@H](CC(C)C)NC(=O)[C@H](C(C)C)NC(=O)[C@H](C)NC(=O)[C@H](CC(C)C)NC(=O)[C@H](CC(C)C)NC1=O` (cyclo(AVLVLPILL)) has an IC50 [4] of 31.8 µM and an IC50 [5] of 56.1 µM.
In the case of `CC[C@H](C)[C@@H]1NC(=O)[C@@H]2CCCN2C(=O)[C@H](CC(C)C)NC(=O)[C@H](C(C)C)NC(=O)[C@H](CC(C)C)NC(=O)[C@H](C)NC(=O)[C@H](CC(C)C)NC(=O)[C@H](CC(C)C)NC(=O)[C@H](CC(C)C)NC1=O` (cyclo(ALVLPILLL)), the IC50 [4] is reported as 40.5 µM and the IC50 [5] is reported as 47.4 µM.
Work on `CC[C@H](C)[C@@H]1NC(=O)[C@@H]2CCCN2C(=O)[C@H](CC(C)C)NC(=O)[C@H](C)NC(=O)[C@H](CC(C)C)NC(=O)[C@H](C(C)C)NC(=O)[C@H](CC(C)C)NC(=O)[C@H](CC(C)C)NC(=O)[C@H](CC(C)C)NC1=O` (cyclo(ALPILLLVL)) yielded an IC50 [4] of 29.9 µM and an IC50 [5] of 29.9 µM.
Work on `CC[C@H](C)[C@@H]1NC(=O)[C@@H]2CCCN2C(=O)[C@H](C)NC(=O)[C@H](C(C)C)NC(=O)[C@H](CC(C)C)NC(=O)[C@H](C(C)C)NC(=O)[C@H](CC(C)C)NC(=O)[C@H](CC(C)C)NC(=O)[C@H](CC(C)C)NC1=O` (cyclo(APILLLVLV)) yielded an IC50 [4] of 39.4 µM and an IC50 [5] of 48.5 µM.
Molecule `CC(C)C[C@@H]1NC(=O)[C@H](C)NC(=O)[C@@H]2CCCN2C(=O)[C@H](CC(C)C)NC(=O)[C@H](C(C)C)NC(=O)[C@H](CC(C)C)NC(=O)[C@H](C(C)C)NC(=O)[C@H](CC(C)C)NC(=O)[C@H](CC(C)C)NC1=O` (cyclo(ALLLVLVLP)) has an IC50 [4] of 55.6 µM and an IC50 [5] of 36.1 µM.
For `CC[C@H](C)[C@@H]1NC(=O)[C@@H]2CCCN2C(=O)[C@H](CC(C)C)NC(=O)[C@H](C(C)C)NC(=O)[C@H](CC(C)C)NC(=O)[C@H](C(C)C)NC(=O)[C@H](CC(C)C)NC(=O)[C@H](CC(C)C)NC(=O)[C@H](C)NC1=O` (cyclo(ALLVLVLPI)), the IC50 [4] was > 100 µM and the IC50 [5] was 29.8 µM.
For `CC[C@H](C)[C@@H]1NC(=O)[C@@H]2CCCN2C(=O)[C@H](CC(C)C)NC(=O)[C@H](C(C)C)NC(=O)[C@H](CC(C)C)NC(=O)[C@H](C(C)C)NC(=O)[C@H](CC(C)C)NC(=O)[C@H](C)NC(=O)[C@H](CC(C)C)NC1=O` (cyclo(ALVLVLPIL)), the IC50 [4] was > 100 µM and the IC50 [5] was 42.8 µM.
With `CC[C@H](C)[C@@H]1NC(=O)[C@@H]2CCCN2C(=O)[C@H](C(C)C)NC(=O)[C@H](CC(C)C)NC(=O)[C@H](C(C)C)NC1=O` (cyclo(IVLVP)) the IC50 [4] was > 100 µM and the IC50 [5] was > 100 µM.
`CC[C@H](C)[C@@H]1NC(=O)[C@@H]2CCCN2C(=O)[C@H](CC(C)C)NC(=O)[C@H](C(C)C)NC(=O)[C@H](CC(C)C)NC(=O)[C@H](C(C)C)NC(=O)[C@H](CC(C)C)NC(=O)[C@H](CC(C)C)NC1=O` (cyclo(ILLVLVLP)) gave an IC50 [4] of 51.7 µM and an IC50 [5] of 73.9 µM.
For `CC[C@H](C)[C@@H]1NC(=O)[C@@H]2CCCN2C(=O)[C@H](CC(C)C)NC(=O)[C@H](C(C)C)NC(=O)[C@H](CC(C)C)NC(=O)[C@H](C(C)C)NC(=O)[C@H](CC(C)C)NC(=O)[C@H](CC(C)C)NC(=O)[C@H](CC(C)C)NC1=O` (cyclo(ILLLVLVLP)), the Activity [6] was 2.6%, the Activity [7] was 22.2 g and the Activity [8] was “Active”. The Activity [9] was 0.4%, the Activity [10] was “Active” and the Activity [11] was 9.6%. The Activity [12] was 5.9%, the Activity [13] was 22.7 g and the Activity [14] was “Dose-dependent effect”. The Activity [15] was “Dose-dependent effect”, the Activity [16] was 12% and the Activity [17] was 84.5 - 86.5%. The TGI [18] was “Dose-dependent effect”, the Activity [19] was “Dose-dependent effect” and the IC50 [4] was 12.2 µM. For the same molecule, the inhibition in vivo at 40 mg/kg [20] was 67.9%, the Activity [21] was “Dose-dependent effect” and the Activity [22] was “Active”. The Activity [23] was 21.1 g, the IC50 [5] was 6.38 µM and the inhibition in vivo at 8 mg/kg [24] was 26.1%. For the same molecule, the Activity [25] was 1.6 - 3.6%, the Activity [26] was “Dose-dependent effect” and the inhibition in vivo at 16 mg/kg [27] was 57%. The Activity [28] was “Active”, the Activity [29] was 2.8% and the Activity [30] was “Dose-dependent effect”. The Activity [31] was 36.6 - 38.6%.
`COc1cc([C@@H]2c3cc4c(cc3[C@@H](O[C@@H]3O[C@@H]5CO[C@@H](C)O[C@H]5[C@H](O)[C@H]3O)[C@H]3COC(=O)[C@H]23)OCO4)cc(OC)c1O` [ETOPOSIDE] showed an Activity [32] of 44.9%.
For `CC[C@H](C)[C@@H]1NC(=O)[C@@H]2CCCN2C(=O)[C@H](CC(C)C)NC(=O)[C@H](C(C)C)NC(=O)[C@H](CC(C)C)NC(=O)[C@H](C(C)C)NC(=O)[C@H](CC(C)C)NC1=O` (cyclo(ILVLVLP)), the IC50 [4] was > 100 µM and the IC50 [5] was > 100 µM.
`CC[C@H](C)[C@@H]1NC(=O)[C@@H]2CCCN2C(=O)[C@H](CC(C)C)NC(=O)[C@H](C(C)C)NC(=O)[C@H](C)NC(=O)[C@H](C(C)C)NC(=O)[C@H](CC(C)C)NC(=O)[C@H](CC(C)C)NC(=O)[C@H](CC(C)C)NC1=O` (cyclo(AVLPILLLV)) was tested, and the IC50 [4] was 38.6 µM and the IC50 [5] was 38.9 µM.
